In paper PMC10895668, “Lead Optimization of the 5-Phenylpyrazolopyrimidinone NPD-2975 toward Compounds with Improved Antitrypanosomal Efficacy” (Journal of Medicinal Chemistry, 2024):
Read-outs that look alike come from different tables or passages of the source.

What was measured:
[1] = human, microsomes, 1 h
[2] = In vivo pharmacokinetics in non-infected mice
Method: (§1) The antiparasitic assays were carried out exactly as described in Blaazer et al.([39]) Metabolic stability, pharmacokinetics, acute mouse infection model results were collected as described previously.[21] All animal experiments were conducted in compliance with institutional guidelines and following approval by the Ethical Committee of the University of Antwerp, Belgium [UA-ECD 2014–96]. Female Swiss mice (15–20 g), were purchased from Janvier (Le Genest Saint Isle, France). […] Animals were treated PO b.i.d. for 5 days at 25 and 50 mg/kg 31c. For the SL-RNA qPCR experiments blood was collected sublingually and subjected to erythrocyte lysis before extracting RNA with the QIAamp RNA Blood Mini kit (Qiagen). […] Small pieces of fat, brain, and spleen tissue were excised and immediately transferred to RNA later (Qiagen) and incubated overnight at 4 °C. RNA extraction was performed as instructed in the RNeasy Mini Plus Kit manual (Qiagen). The one-step SensiFAST SYBR Hi-Rox PCR kit (Bioline USA Inc., via Gentaur Belgium BVBA, Kampenhout, Belgium) was used for the PCR with the following forward and reverse primers, respectively 5′-[…]-3′ and 5′-[…]-3′. An initial activation step of 10 min at 45 °C and 10 min at 95 °C was used, followed by the amplification step for 40 cycles (15 s at 95 °C, 15 s 50 °C and 15 s at 60 °C). At last, the melting curves were generated with an increment of 0.3 °C (15 s at 95 °C 1 min at 45 °C and 15 s at 95 °C). The PCR was run on the Step One Plus real-time PCR system (Applied Biosystems, California, USA). An additional qPCR was performed with the mouse housekeeping gene Eef2 to confirm successful RNA extraction.
Blood drops were sampled before treatment and at 0.5, 1, 2, 4, 6, and 24 h after PO dosage; samples after IP dosage were identical with an additional time point of 0.25 h. The blood drops were analyzed adopting the dry blood spot technique and analysis by LC-MS^2. Briefly, blood was collected from the retro-orbital complex using capillary tubes and dropped (15 μL) on WhatmanFTADMPK cards (B). The spots were left to air-dry at room temperature for at least 2 h. For analysis, a 6 mm disk was punched out and extracted in 75:25 MeCN/water containing the internal standard tolbutamide. The amount of parent compound was determined using liquid chromatography (UPLC) (Waters Aquity) coupled with tandem quadrupole mass spectrometry (MS^2) (Waters Xevo) equipped with an electrospray ionization (ESI) interface and operated in multiple reaction monitoring mode. Standard curves in whole blood were made for calibration and validation. Standard PK parameters were determined using Topfit software.
Brain tissue of the animals was collected on ice at autopsy 24 h post-treatment (50 mg/kg oral dose) after perfusion. […] The tissues were immediately homogenized using a GentleMacs tissue homogenizer. The tissue samples were subjected to protein precipitation by adding MeCN, followed by a centrifugation step at 4 °C for 5 min at 21, 130 g. The supernatant was further diluted in 75:25 MeCN/water for LC-MS^2 analysis as described above.

[3] = tested on: Trypanosoma cruzi; assay: Antiparasitic assay, T. cruzi; format: cell-based; conditions: mean ± SD, n ≥ 2, read-out: pIC50 T. cruzi (converted)
Method: First, they were tested in vitro against the protozoan species Trypanosoma cruzi and Leishmania infantum and the clinically relevant T. b. rhodesiense.
as §1, with “An initial activation step of 10 min at 45 °C and 10 min at 95 °C was used, followed by the amplification step for 40 cycles (15 s at 95 °C, 15 s 50 °C and 15 s at 60 °C). At last, the melting curves were generated with an increment of 0.3 °C (15 s at 95 °C 1 min at 45 °C and 15 s at 95 °C). The PCR was run on the Step One Plus real-time PCR system (Applied Biosystems, California, USA). An additional qPCR was performed with the mouse housekeeping gene Eef2 to confirm successful RNA extraction.” left out

[4] = tested on: MRC-5 cells; assay: MRC-5SV2 cytotoxicity assay; format: cell-based; conditions: Homo sapiens, MRC5, 72 h; cytotoxicity, 3 days incubation; mean ± SD, n ≥ 2; read-out: pIC50 MRC-5 (converted)
Method: The synthesized analogues were tested against T. b. brucei, and inhibition of MRC-5 (human lung fibroblasts MRC-5SV40) cell proliferation was included as cytotoxicity control. […] Analogue 17 with an amino group instead of the carbonyl group was prepared to improve solubility for further modification. […] In vitro experiments were carried out with the bloodstream form of the T. b. brucei Squib strain (suramin-sensitive). […] All cultures and assays were conducted at 37 °C under an atmosphere of 5% CO2. […] Cell growth is compared to untreated-control wells (100% cell growth) and medium-control wells (0% cell growth). […] After 4 h at 37 °C, fluorescence is measured (λex 550 nm, λem 590 nm). The results are expressed as % reduction in cell growth/viability compared to control wells and an IC50 and an IC90 (50 and 90% inhibitory concentrations) are determined.

[5] = tested on: T. b. brucei; assay: Trypanosoma susceptibility assay (resazurin viability); format: cell-based; conditions: for IC50: Trypanosoma brucei
Method: as §1
In vitro experiments were carried out with the bloodstream form of the T. b. brucei Squib strain (suramin-sensitive). Parasites were routinely cultured in T25 culture flasks containing 10 mL of HMI-9 medium (Invitrogen) supplemented with 10% heat-inactivated fetal bovine serum (Life Technologies) and 2.5 μg/mL Geneticin (Life Technologies). MRC-5SV2 cells were cultured in MEM + Earl’s salts-medium, supplemented with 2 mM L-glutamine, 16.5 mM NaHCO3, and 5% inactivated fetal calf serum. All cultures and assays were conducted at 37 °C under an atmosphere of 5% CO2.
(§2) Parasites were counted in a KOVA counting chamber and diluted to 1.5 × 10^4 parasites/well of a 96-well plate (200 μL total volume), upon which the prediluted test compounds were added. Drug exposure covered a 72 h period without renewal of the culture medium. After 3 days of incubation, parasite growth was assessed fluorimetrically after addition of 50 μL of resazurin per well. After 6 h (T. b. rhodesiense) or 24 h (T. b. brucei) at 37 °C, fluorescence is measured (λex 550 nm, λem 590 nm). Parasite viability was assessed using the resazurin viability assay, and drug activity was calculated as percentage viability reduction compared to nontreated controls.

[6] = tested on: T. b. rhodesiense; assay: as above; format: cell-based; conditions: Trypanosoma brucei, mean ± SD, n ≥ 2, read-out: pIC50 T. b. rhodesiense (converted)
Method: The antiparasitic assays were carried out exactly as described in Blaazer et al.([39]) Metabolic stability, pharmacokinetics, acute mouse infection model results were collected as described previously.[21] All animal experiments were conducted in compliance with institutional guidelines and following approval by the Ethical Committee of the University of Antwerp, Belgium [UA-ECD 2014–96]. Female Swiss mice (15–20 g), were purchased from Janvier (Le Genest Saint Isle, France). […] Animals were treated PO b.i.d. for 5 days at 25 and 50 mg/kg 31c. For the SL-RNA qPCR experiments blood was collected sublingually and subjected to erythrocyte lysis before extracting RNA with the QIAamp RNA Blood Mini kit (Qiagen). […]
as §2, with “Drug exposure covered a 72 h period without renewal of the culture medium.” left out

[7] = female, Swiss, mouse, in vivo, ip, 10 mg/kg
[8] = female, Swiss, mouse, in vivo, po, 50 mg/kg

Structure (SMILES): CC(C)(C)c1n[nH]c2c(=O)[nH]c(-c3ccc(F)cc3)nc12 [31c, 3-(tert-Butyl)-5-(4-fluorophenyl)-1,6-dihydro-7H-pyrazolo[4,3-d]pyrimidin-7-one]
- parent compound remaining [1]: at least 69%
- blood concentration exceeding the in vitro IC50 against T. brucei ([2]; both routes (10 mg/kg IP, 50 mg/kg PO)): more than 300 fold
- AUC(0-t) at 24 h [2, 7]: 2470 ± 1560 ng·h/mL
- Cl [2, 7]: 326 ± 148
- Cmax at 24 h [2, 7]: 5.05 ± 1.51 µM
- Tmax at 24 h [2, 7]: 0.5 ± 0.3 h
- half-life at 24 h [2, 7]: 1.56 ± 0.5 h
- AUC0–6 h higher compared with 2 [2, 8]: more than 7 fold
- AUC(0-t) at 24 h [2, 8]: 43400 ng·h/mL
- Cl [2, 8]: 11 ± 1
- Cmax at 24 h [2, 8]: 10.9 ± 1.69 µM
- Tmax at 24 h [2, 8]: 6 h
- concentration at 24 h [2, 8]: 0.296 µM
- half-life at 24 h [2, 8]: 3.51 ± 1.34 h
- IC50 [3]: > 63100 nM
- IC50 [4]: > 63100 nM
- improved potency compared to 2 ([5]; T. brucei, versus compound 2): 4 fold
- IC50 ([5]; 72 h, T. b. brucei Squib bloodstream form, 72 h exposure, mean ± SD, n ≥ 2, read-out: pIC50 T. brucei (converted)): 15.8 nM
- IC50 ([5]; read-out: IC50 against T. b. brucei): 17 nM
- IC50 [6]: 10 nM
